Measured values: ChEMBL document CHEMBL3817808, “Enlarging the chemical space of anti-leishmanials: a structureactivity relationship study of peptoids against Leishmania mexicana, a causative agent of cutaneous leishmaniasis” (Medchemcomm, 2016)

Tests used:
Leishmania mexicana [1] = assay: Antileishmanial activity against Leishmania mexicana MNYC/BZ/62/M379 promastigotes assessed as parasite viability measured after 1 hr by alamarBlue staining based fluorescence analysis; assay type: functional; settings: MNYC/BZ/62/M379, 1 h, read-out: ED50 (the source's name)
Leishmania mexicana [2] = assay: Antileishmanial activity against Leishmania mexicana MNYC/BZ/62/M379 amastigotes infected in mouse RAW264.7 cells assessed as parasite viability measured after 24 hrs by alamarBlue staining based fluorescence analysis; assay type: functional
[3] = Cytotoxicity against mouse RAW264.7 cells measured after 24 hrs by alamarBlue staining based fluorescence analysis; assay type: cell-based; settings: read-out: ED50
Leishmania mexicana [4] = assay: Antileishmanial activity against axenic amastigote form of Leishmania mexicana MNYC/BZ/62/M379 assessed as parasite viability measured after 1 hr by alamarBlue staining based fluorescence analysis; assay type: functional; settings: MNYC/BZ/62/M379, 1 h, read-out: ED50 (the source's name)

C[C@@H]1[C@H](O)[C@@H](C)/C=C/C=C/C=C/C=C/C=C/C=C/C=C/[C@H](O[C@@H]2O[C@H](C)[C@@H](O)[C@H](N)[C@@H]2O)C[C@@H]2O[C@](O)(C[C@@H](O)C[C@@H](O)[C@H](O)CC[C@@H](O)C[C@@H](O)CC(=O)O[C@H]1C)C[C@H](O)[C@H]2C(=O)O [AMPHOTERICIN B]
EC50 (Leishmania mexicana [1]): < 2000 nM | ED50 (Leishmania mexicana [2]): 195 nM | CC50 at 24 h [3]: > 5000 nM | EC50 (Leishmania mexicana [4]): < 2000 nM
